Consider 35 compounds from patent US10793591B2, “Substituted nucleosides, nucleotides and analogs thereof” (priority 2012, dated 2020).

SMILES strings stand for the structures. Where only a bound is given, the exact number is not on record here.

The first experiment deals with Huh-7 cells containing the self-replicating, subgenomic HCV replicon. Nature of the experiment: HCV replicon assay (luciferase reporter). The class given is cell-based. The note with it: Hepatitis C virus, Huh-7, 72 h.
`CC(N[P@@](=O)(OC[C@@]1(F)O[C@@H](n2ccc(=O)[nH]c2=O)[C@](C)(O)[C@@H]1O)Oc1ccccc1)C(=O)OC1CCCCC1` (some centres unmarked) [Compound 21] returned an EC50 of under 1000 nM.

With `CC(C)OC(=O)[C@H](C)NP(=O)(N[C@@H](C)C(=O)OC(C)C)OC[C@@]1(F)O[C@@H](n2ccc(=O)[nH]c2=O)[C@](C)(O)[C@@H]1O` [Compound 70], the EC50 is 1000 to 10000 nM. In the case of `CC(C)OC(=O)C(C)N[P@@](=O)(OC[C@@]1(F)O[C@@H](n2ccc(=O)[nH]c2=O)[C@](C)(O)[C@@H]1O)Oc1ccccc1` (some centres unmarked) [Compound 19], the EC50 was under 1000 nM. Take `CCOc1nc(N)nc2c1ncn2[C@@H]1O[C@](F)(COP(=O)(N[C@@H](C)C(=O)OCC(C)(C)C)Oc2ccccc2)[C@@H](O)[C@@]1(C)F` (some centres unmarked) [Compound 91]: the EC50 is under 1000 nM.

On to `C[C@H](NP(=O)(OC[C@@]1(F)O[C@@H](n2cnc3c(=O)[nH]c(N)nc32)[C@](C)(O)[C@@H]1O)Oc1ccccc1)C(=O)OC1CCCCC1` (some centres unmarked) [Compound 11], for which the EC50 is under 1000 nM. Still for that read-out and setting: then `CCOc1nc(N)nc2c1ncn2C1O[C@](F)(COP(=O)(N[C@@H](C)C(=O)OC(C)C)Oc2cccc3ccccc23)[C@@H](O)[C@@]1(C)F` (some centres unmarked) [Compound 83], with under 1000 nM. The same measure, in the same setting: then `CC(C)OC(=O)[C@H](C)NP(=O)(OC[C@@]1(F)O[C@@H](n2ccc(=O)[nH]c2=O)[C@](C)(O)[C@@H]1O)Oc1ccccc1` (some centres unmarked) [Compound 2], with under 1000 nM.

For the compound `CCOc1nc(N)nc2c1ncn2[C@@H]1O[C@](F)(COP(=O)(N[C@@H](C)C(=O)OCC(C)(C)C)Oc2ccccc2)[C@@H](O)[C@@]1(C)O` (some centres unmarked) [Compound 17], the EC50 was under 1000 nM. Turning to `CCOc1nc(N)nc2c1ncn2[C@@H]1O[C@](F)(COP(=O)(N[C@@H](C)C(=O)OCC(C)(C)C)Oc2cccc3ncccc23)[C@@H](O)[C@@]1(C)F` (some centres unmarked) [Compound 89], the EC50 was under 1000 nM. The same measure, in the same setting: then `CCOc1nc(N)nc2c1ncn2[C@@H]1O[C@]2(F)COP(=O)(OCC)O[C@H]2[C@@]1(C)F` (some centres unmarked) [Compound 79], with under 1000 nM; and `CCOc1nc(N)nc2c1ncn2[C@@H]1O[C@](F)(COP(=O)(N[C@@H](C)C(=O)OC2CCCC2)Oc2ccccc2)[C@@H](O)[C@@]1(C)F` (some centres unmarked) [Compound 87], with under 1000 nM; and `C=C=C[C@]1(O)[C@H](n2ccc(=O)[nH]c2=O)O[C@](F)(CO[P@@](=O)(N[C@@H](C)C(=O)OC(C)C)Oc2ccccc2)[C@H]1O` [Compound 73], with 1000 to 10000 nM. On the same count and under the same terms, then `C[C@H](NP(=O)(OC[C@@]1(F)O[C@@H](n2ccc(=O)[nH]c2=O)[C@](C)(O)[C@@H]1O)Oc1ccccc1)C(=O)OC1CCCCC1` (some centres unmarked) [Compound 3], with under 1000 nM. Turning to `CCOc1nc(N)nc2c1ncn2[C@@H]1O[C@](F)(COP(=O)(N[C@@H](C)C(=O)OC(CC)CC)Oc2ccccc2)[C@@H](O)[C@@]1(C)F` (some centres unmarked) [Compound 88], the EC50 is under 1000 nM. In turn, `CC(C)(C)C(=O)SCCCCOP(=O)(OCCCCSC(=O)C(C)(C)C)OC[C@@]1(F)O[C@@H](n2ccc(=O)[nH]c2=O)[C@](C)(O)[C@@H]1O` [Compound 60] registered an EC50 of 10000 to 100000 nM. As for `CC(N[P@](=O)(OC[C@@]1(F)O[C@@H](n2ccc(=O)[nH]c2=O)[C@](C)(O)[C@@H]1O)Oc1ccccc1)C(=O)OC1CCCCC1` (some centres unmarked) [Compound 20], the EC50 was under 1000 nM. Still for that read-out and setting: the same measure for `CCOc1nc(N)nc2c1ncn2C1O[C@](F)(COP(=O)(N[C@@H](C)C(=O)OCC(C)C)Oc2ccccc2)[C@@H](O)[C@@]1(C)F` (some centres unmarked) [Compound 86]: under 1000 nM; for `CCOc1nc(N)nc2c1ncn2[C@@H]1O[C@]2(F)COP(=O)(OC(C)C)O[C@H]2[C@@]1(C)F` (some centres unmarked) [Compound 81]: under 1000 nM; for `CCOC(=O)[C@H](C)NP(=O)(N[C@@H](C)C(=O)OCC)OC[C@@]1(F)O[C@@H](n2ccc(=O)[nH]c2=O)[C@](C)(O)[C@@H]1O` [Compound 67]: 1000 to 10000 nM. In the case of `CC(C)OC(=O)[C@H](C)NP(=O)(OC[C@@]1(F)O[C@@H](n2ccc(=O)[nH]c2=O)[C@](C)(Cl)[C@@H]1O)Oc1ccccc1` (some centres unmarked) [Compound 62], the EC50 was under 1000 nM. On the same count and under the same terms, then `CCOc1nc(N)nc2c1ncn2[C@@H]1O[C@](F)(COP(=O)(N[C@@H](C)C(=O)OC2CCCCC2)Oc2ccccc2)[C@@H](O)[C@@]1(C)O` (some centres unmarked) [Compound 16], with under 1000 nM. Same read-out and setting: the same measure for `CCOc1nc(N)nc2c1ncn2[C@@H]1O[C@](F)(COP(=O)(N[C@@H](C)C(=O)OCC(C)(C)C)Oc2cccc3ccccc23)[C@@H](O)[C@@]1(C)F` (some centres unmarked) [Compound 90]: under 1000 nM. For the compound `CCOc1nc(N)nc2c1ncn2[C@@H]1O[C@](F)(COP(=O)(N[C@@H](C)C(=O)OC2CCCCC2)Oc2ccccc2)[C@@H](O)[C@@]1(C)F` (some centres unmarked) [Compound 66], the EC50 is under 1000 nM.

`C=C[C@]1(O)[C@H](n2ccc(=O)[nH]c2=O)O[C@](F)(COP(=O)(N[C@@H](C)C(=O)OC(C)C)Oc2ccccc2)[C@H]1O` (some centres unmarked) [Compound 77]: the EC50 was in the range of 1000 to 10000 nM. The same measure, in the same setting: then `C#C[C@]1(O)[C@H](n2ccc(=O)[nH]c2=O)O[C@](F)(COP(=O)(N[C@@H](C)C(=O)OC2CCCCC2)Oc2ccccc2)[C@H]1O` (some centres unmarked) [Compound 22], with under 1000 nM; and `CCOc1nc(N)nc2c1ncn2C1O[C@](F)(COP(=O)(N[C@@H](C)C(=O)OC(C)C)Oc2ccccc2)[C@@H](O)[C@@]1(C)F` (some centres unmarked) [Compound 85], with under 1000 nM.

In the case of `CC(C)OC(=O)C(C)N[P@](=O)(OC[C@@]1(F)O[C@@H](n2ccc(=O)[nH]c2=O)[C@](C)(O)[C@@H]1O)Oc1ccccc1` (some centres unmarked) [Compound 18], the EC50 is under 1000 nM. The same measure, in the same setting: then `CC(C)OC(=O)[C@H](C)NP(=O)(OC[C@@]1(F)O[C@@H](n2ccc(=O)[nH]c2=O)[C@](C)(O)[C@@H]1O)Oc1ccc(Cl)cc1` (some centres unmarked) [Compound 56], with under 1000 nM; and `CC(=O)O[C@H]1[C@@](C)(O)[C@H](n2ccc(=O)[nH]c2=O)O[C@]1(F)COP(=O)(N[C@@H](C)C(=O)OC(C)C)Oc1ccc(Cl)cc1` (some centres unmarked) [Compound 57], with under 1000 nM; and `CC(C)OC(=O)[C@H](C)NP(=O)(OC[C@@]1(F)O[C@@H](n2ccc(=O)[nH]c2=O)[C@](C)(O)[C@@H]1O)Oc1cccc2ccccc12` (some centres unmarked) [Compound 54], with under 1000 nM.

Turning to `CCOc1nc(N)nc2c1ncn2[C@@H]1O[C@]2(F)COP(=O)(OCC(C)C)O[C@H]2[C@@]1(C)F` (some centres unmarked) [Compound 80], the EC50 is 1000 to 10000 nM.

The same experiment, now with this note: Hepatitis C virus, Huh-7; HCV replicon cells, 72 h, Bright-Glo luciferase; read-out: EC50.
As to `CCOc1nc(N)nc2c1ncn2[C@@H]1O[C@]2(F)CO[P@](=O)(OC(C)C)O[C@H]2[C@@]1(C)F` [Compound 42], the EC50 is under 1000 nM. Consider `CC(C)OC(=O)OCOP(=O)(OCOC(=O)OC(C)C)OC[C@@]1(F)O[C@@H](n2ccc(=O)[nH]c2=O)[C@](C)(F)[C@@H]1O` [Compound 61], for which the EC50 is under 1000 nM.

Still in this experiment, the particulars now being: read-out: EC50.
With `C#C[C@]1(O)[C@H](n2cnc3c(OCC)nc(N)nc32)O[C@](F)(CO[P@@](=O)(N[C@@H](C)C(=O)OC2CCCCC2)Oc2ccccc2)[C@H]1O` [Compound 35], the EC50 is under 1000 nM. In the case of `C#C[C@]1(O)[C@H](n2cnc3c(OCC)nc(N)nc32)O[C@](F)(CO[P@](=O)(N[C@@H](C)C(=O)OC2CCCCC2)Oc2ccccc2)[C@H]1O` [Compound 34], the EC50 was under 1000 nM.

For orientation: EC50 means the concentration needed to bring the measured effect to its halfway point.
